From patent US4895842A, “Phenylalanine derivative and proteinase inhibitor” (Shosuke Okamoto, priority 1985, dated 1990) come the findings set out here.

The target in test [1] is T1, bovine thrombin (Bos taurus, UniProt P00735). Kind of test: Antithrombin activity: inhibition of S-2238 decomposition. It counts as biochemical. A digest of the protocol: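 Inhibitor in 0.05 M Tris-HCl, pH 8.3, preincubated with S-2238 (0.2 mM stock) for 5 min at 37 °C. Bovine thrombin (0.2 unit/ml stock) then added, and p-nitroaniline release followed at 405 nm by initial velocity at 37 °C. I50 is the concentration halving the rate.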

The target in test [2] is T1, bovine thrombin. Kind of test: Antithrombin activity: inhibition of fibrin formation from fibrinogen. It is filed as biochemical. In outline: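 Inhibitor in 0.18M borate-saline buffer pH 7.4 mixed with 0.2% bovine fibrinogen and 4 unit/ml bovine thrombin (stock levels) at 37° C; clotting time measured. I50 is the inhibitor concentration doubling coagulation time versus uninhibited control.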

Test [3] addresses T2, human plasmin (Homo sapiens, UniProt P00747). Kind of test: Antiplasmin activity: inhibition of fibrin decomposition. It counts as biochemical. Particulars: read-out: Plasmin Fibrin (I50). A digest of the protocol:
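Inhibitor in 0.18 M borate–physiological saline buffer, pH 7.4, received bovine fibrinogen (0.2% solution), human plasmin (0.3 casein unit/ml solution) and bovine thrombin (50 unit/ml solution) at 37 °C. Time for the resulting fibrin clot to dissolve was recorded.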

Test [4] concerns the target human plasma kallikrein (Homo sapiens, UniProt P03952). Kind of test: Anti-plasma kallikrein activity: inhibition of S-2302 decomposition. It is filed as biochemical.
The target of test [5] is human urokinase (Homo sapiens, UniProt P00749). Kind of test: biochemical. A digest of the protocol: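 Inhibitor in 0.05M Tris-HCl pH 8.8 preincubated 5 min at 37° C with S-2444 (1 mM solution added), then human urokinase (500 unit/ml solution) added for 5 min at 37° C; stopped with 50% acetic acid. p-Nitroaniline read at 405 nm; I50 is concentration halving absorbance versus no inhibitor.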

Test [6] concerns the target T3, bovine trypsin (Bos taurus, UniProt P00760).
T3 sequence (P00760 24-246): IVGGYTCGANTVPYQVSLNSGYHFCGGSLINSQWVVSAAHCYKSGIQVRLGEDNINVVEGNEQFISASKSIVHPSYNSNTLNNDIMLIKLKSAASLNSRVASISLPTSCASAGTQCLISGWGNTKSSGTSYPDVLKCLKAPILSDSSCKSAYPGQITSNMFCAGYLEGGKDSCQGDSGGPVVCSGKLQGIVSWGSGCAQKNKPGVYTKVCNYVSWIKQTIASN
Kind of test: Antitrypsin activity: inhibition of S-2238 decomposition. It is filed as biochemical.
Protocol: Determination of inhibition activity against S-2238 decomposition
An inhibitor sample is dissolved in a 0.05M Tris-imidazole buffer solution (pH=8.1) and 125 μl of a 1 mM S-2238 solution is added to make the total volume to 1.20 ml. The mixture is incubated at a temperature of 37° C. for 5 minutes in a constant temperature bath. To this mixture, 0.05 ml of bovine trypsin is added and the absorbance, at 405 nm, of the p-nitroaniline formed per minute is determined at a temperature of 37° C. by using the so-called initial velocity method. Thus, the concentration I50 (μmol) of the inhibitor sample, at which the absorbance is one half (i.e., 1/2) of that obtained in the absence of the inhibitor sample, is determined.

Test [7] addresses T2, human plasmin. Kind of test: biochemical. Particulars: read-out: Plasmin S-2251 (I50). A digest of the protocol: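 Inhibitor in 0.05M Tris-HCl buffer, pH 7.4, was incubated with human plasmin added at 0.2 casein unit/ml (stock) at 37° C for 4 minutes, then stopped with 50% acetic acid. I50 (μmol) is the inhibitor concentration giving half the absorbance obtained without inhibitor.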

The mark [8] stands for this setting: Table 2, S-2238 substrate, pH 8.3, 37° C., read-out: Thrombin S-2238 (I50).
Setting [9] is: Table 2, concentration at which fibrin dissolution time is extended twice, pH 7.4, 37° C.
Where [10] appears, read: Table 2, S-2302 substrate, pH 7.8, 37° C., read-out: Plasma Kallikrein S-2302 (I50).
[11] abbreviates: Table 2, S-2444 substrate, pH 8.8, 37° C., read-out: Urokinase S-2444 (I50).
Where [12] appears, read: Table 2, S-2238 substrate, pH 8.1, 37° C., read-out: Trypsin S-2238 (I50).
Setting [13] is: Table 4, comparative compounds of Table 3, S-2238 substrate, pH 8.3, read-out: Thrombin S-2238 (I50).
[14] abbreviates: Table 4, comparative compounds of Table 3, coagulation time extended twice, read-out: Thrombin Fibrinogen (I50).
Setting [15] is: Table 4, comparative compounds of Table 3, fibrin dissolution time extended twice.
Setting [16] is: Table 4, comparative compounds of Table 3, S-2251 substrate, pH 7.4, 37° C.

Counter-ions that a name gives are not always drawn. Like-named read-outs stand apart in the source and are kept apart here.

human plasma kallikrein, sequence (P03952 391-638 limits assumed): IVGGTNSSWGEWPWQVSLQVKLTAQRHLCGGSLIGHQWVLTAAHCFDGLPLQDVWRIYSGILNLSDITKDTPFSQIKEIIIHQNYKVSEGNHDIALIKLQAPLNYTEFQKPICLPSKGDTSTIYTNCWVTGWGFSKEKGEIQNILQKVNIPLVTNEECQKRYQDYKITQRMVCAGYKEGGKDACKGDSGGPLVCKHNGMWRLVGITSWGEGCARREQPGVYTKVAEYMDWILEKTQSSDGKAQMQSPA
human plasma kallikrein, sequence (P03952 20-390 partner limits assumed): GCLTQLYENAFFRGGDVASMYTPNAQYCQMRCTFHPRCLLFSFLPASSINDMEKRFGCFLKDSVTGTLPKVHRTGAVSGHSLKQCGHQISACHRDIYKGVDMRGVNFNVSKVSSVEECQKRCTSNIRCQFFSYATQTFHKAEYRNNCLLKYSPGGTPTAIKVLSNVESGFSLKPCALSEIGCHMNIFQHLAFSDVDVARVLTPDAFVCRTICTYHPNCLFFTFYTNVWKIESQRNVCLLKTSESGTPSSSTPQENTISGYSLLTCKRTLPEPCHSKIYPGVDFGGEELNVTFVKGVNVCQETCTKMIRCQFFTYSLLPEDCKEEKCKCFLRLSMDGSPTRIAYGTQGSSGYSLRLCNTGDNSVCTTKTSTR
T2 sequence (P00747 581-810 limits assumed): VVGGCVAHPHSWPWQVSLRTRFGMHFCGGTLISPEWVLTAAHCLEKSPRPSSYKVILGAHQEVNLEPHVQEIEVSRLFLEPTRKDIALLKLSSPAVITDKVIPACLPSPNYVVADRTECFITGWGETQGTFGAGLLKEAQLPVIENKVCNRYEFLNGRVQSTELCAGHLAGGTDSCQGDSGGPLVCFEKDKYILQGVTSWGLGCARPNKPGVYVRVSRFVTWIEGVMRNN
T2 sequence (P00747 97-580 partner limits assumed): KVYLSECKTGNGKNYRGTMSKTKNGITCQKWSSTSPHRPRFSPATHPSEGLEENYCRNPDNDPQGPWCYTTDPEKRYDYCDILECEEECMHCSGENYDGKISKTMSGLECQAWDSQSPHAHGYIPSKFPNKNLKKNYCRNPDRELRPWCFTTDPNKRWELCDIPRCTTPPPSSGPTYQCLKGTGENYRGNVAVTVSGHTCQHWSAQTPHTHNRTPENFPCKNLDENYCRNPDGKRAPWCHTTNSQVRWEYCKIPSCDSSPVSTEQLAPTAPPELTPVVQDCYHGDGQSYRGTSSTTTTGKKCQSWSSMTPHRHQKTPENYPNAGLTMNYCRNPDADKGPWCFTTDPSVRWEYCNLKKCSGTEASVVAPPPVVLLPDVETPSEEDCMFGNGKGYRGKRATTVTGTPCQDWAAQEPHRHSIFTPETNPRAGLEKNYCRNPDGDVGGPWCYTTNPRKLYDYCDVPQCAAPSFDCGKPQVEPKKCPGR

In the case of `NC[C@H]1CC[C@H](C(=O)N[C@@H](Cc2ccc(Oc3cc(Cl)ccc3[N+](=O)[O-])cc2)C(=O)Nc2ccncc2)CC1` [Compound No. 137, N-(trans-4-aminomethylcyclohexylcarbonyl)-4-(3-chloro-6-nitrophenoxy)-L-phenylalanine 4-pyridylamide dihydrochloride], the IC50 was greater than 400 µM in test [1] (setting [8]); greater than 200 µM in test [2]; 0.58 µM in test [3] (setting [9]); 0.66 µM in test [4] (setting [10]); 37 µM in test [5] (setting [11]); 1.2 µM in test [6] (setting [12]). In test [7], the IC50 stood at 0.9 µM.

With `NCc1ccc(C(=O)NC(Cc2ccccc2)C(=O)N2CCCCC2)cc1` (stereo not drawn) [Table 3 Compound No. 3, reference compound], the IC50 in test [1] (setting [13]) is greater than 1000 µM; in test [2] (setting [14]), greater than 1000 µM; in test [3] (setting [15]) it was greater than 1000 µM; in test [4] (Table 4, comparative compounds of Table 3, S-2302 substrate, pH 7.8, read-out: Plasma Kallikrein S-2302 (I50)) it was greater than 1000 µM; in test [5] (Table 4, comparative compounds of Table 3, S-2444 substrate, pH 8.8, read-out: Urokinase S-2444 (I50)), greater than 1000 µM; in test [6] (Table 4, comparative compounds of Table 3, S-2238 substrate, pH 8.1, read-out: Trypsin S-2238 (I50)), greater than 300 µM. In addition, the IC50 in test [7] (setting [16]) is greater than 1000 µM.

Regarding `CC(=O)NC(Cc1ccc([N+](=O)[O-])cc1)C(=O)Nc1ccc([N+](=O)[O-])cc1` (stereo not drawn) [Table 3 Compound No. 4, reference compound], the IC50 in test [1] (setting [13]) is greater than 100 µM; in test [2] (setting [14]) it was greater than 100 µM; in test [3] (setting [15]), greater than 100 µM; in test [4], greater than 100 µM; in test [5], greater than 100 µM; in test [6], greater than 150 µM. The IC50 in test [7] (setting [16]) was greater than 100 µM.

As for `CSc1ccc(NC(=O)[C@H](Cc2ccc(OCc3ccccc3)cc2)NC(=O)[C@H]2CC[C@H](CN)CC2)cc1` [compound 29], the IC50 was greater than 50 µM in test [1] (setting [8]); greater than 25 µM in test [2]; 0.35 µM in test [3] (setting [9]); 1.1 µM in test [4] (setting [10]); 330 µM in test [5] (setting [11]); 3.1 µM in test [6] (setting [12]). In test [7], the IC50 stood at 3.1 µM.

As for `CC(=O)c1ccc(NC(=O)[C@H](Cc2ccc(OCC(=O)c3ccccc3)cc2)NC(=O)[C@H]2CC[C@H](CN)CC2)cc1` [compound 30], the IC50 was 280 µM in test [1] (setting [8]); greater than 50 µM in test [2]; 0.95 µM in test [3] (setting [9]); 0.37 µM in test [4] (setting [10]); 80 µM in test [5] (setting [11]); 1 µM in test [6] (setting [12]). Further, in test [7], the IC50 is 1.4 µM.

Turning to `NC[C@H]1CC[C@H](C(=O)NC(Cc2ccc(N)cc2)C(=O)Nc2ccc(C(=O)c3ccccc3)cc2)CC1` (stereo partly drawn) [compound 33], the IC50 is greater than 200 µM in test [1] (setting [8]); greater than 200 µM in test [2]; 12 µM in test [3] (setting [9]); 8.5 µM in test [4] (setting [10]); 11 µM in test [5] (setting [11]); 0.52 µM in test [6] (setting [12]). Besides, the IC50 in test [7] was 13 µM.

Turning to `NC[C@H]1CC[C@H](C(=O)N[C@@H](Cc2ccc(OCc3ccccc3)cc2)C(=O)Nc2cccc(Cl)c2)CC1` [compound 36], the IC50 in test [1] is greater than 125 µM; in test [2], greater than 50 µM; in test [3] (setting [9]) it was 0.41 µM; in test [4] (setting [10]), 1.2 µM; in test [5] (setting [11]) it was 100 µM; in test [6] (setting [12]), 0.82 µM. In test [7], the IC50 was 1.7 µM.

For the compound `CC1CCC(NC(=O)[C@H](Cc2ccc(OCc3ccccc3)cc2)NC(=O)c2ccc(CN)cc2)CC1` (stereo partly drawn) [compound 38], the IC50 in test [1] (setting [8]) was greater than 50 µM; in test [2], greater than 50 µM; in test [3] (setting [9]), 0.41 µM; in test [4] (setting [10]), 60 µM; in test [5] (setting [11]) it was greater than 400 µM; in test [6] (setting [12]), 2.5 µM. Also, in test [7], the IC50 is 2.3 µM.

For `NC[C@H]1CC[C@H](C(=O)N[C@@H](Cc2ccc(OCc3ccccc3)cc2)C(=O)Nc2cccc([N+](=O)[O-])c2)CC1` [compound 44], the IC50 in test [1] (setting [8]) is greater than 500 µM; in test [2], greater than 100 µM; in test [3] (setting [9]), 0.95 µM; in test [4] (setting [10]), 1.2 µM; in test [5] (setting [11]) it was 60 µM; in test [6] (setting [12]) it was 1.1 µM. Besides, the IC50 in test [7] was determined as 3.8 µM.

As to `NC[C@H]1CC[C@H](C(=O)N[C@@H](Cc2ccc(OCc3ccccc3)cc2)C(=O)N2CCC(C(=O)c3ccccc3)CC2)CC1` [compound 48], the IC50 is greater than 200 µM in test [1]; greater than 100 µM in test [2]; 3.4 µM in test [3] (setting [9]); greater than 100 µM in test [4] (setting [10]); greater than 200 µM in test [5] (setting [11]); 22 µM in test [6] (setting [12]). The IC50 in test [7] was determined as 5.3 µM.

Consider `CC(=O)c1ccc(NC(=O)[C@H](Cc2ccc(OCc3cccc([N+](=O)[O-])c3)cc2)NC(=O)[C@H]2CC[C@H](CN)CC2)cc1` [compound 54], for which the IC50 is greater than 200 µM in test [1] (setting [8]); greater than 100 µM in test [2]; 0.19 µM in test [3] (setting [9]); 0.45 µM in test [4] (setting [10]); 35 µM in test [5] (setting [11]); 1 µM in test [6] (setting [12]). Also, the IC50 in test [7] amounted to 1 µM.

On to `CC(=O)c1ccc(NC(=O)[C@H](Cc2ccc(OCc3cccc(C(F)(F)F)c3)cc2)NC(=O)[C@H]2CC[C@H](CN)CC2)cc1` [compound 55], for which the IC50 in test [1] (setting [8]) is greater than 125 µM; in test [2] it was greater than 50 µM; in test [3] (setting [9]), 0.29 µM; in test [4] (setting [10]), 0.42 µM; in test [5] (setting [11]) it was 57 µM; in test [6] (setting [12]) it was 2.6 µM. In addition, the IC50 in test [7] came to 1.2 µM.

Consider `CC(=O)c1ccc(NC(=O)[C@H](Cc2ccc(OCc3cccc(F)c3)cc2)NC(=O)[C@H]2CC[C@H](CN)CC2)cc1` [compound 56], for which the IC50 in test [1] (setting [8]) is 500 µM; in test [2] it was greater than 100 µM; in test [3] (setting [9]) it was 0.29 µM; in test [4] (setting [10]), 0.76 µM; in test [5] (setting [11]), 46 µM; in test [6] (setting [12]), 1.2 µM. In addition, the IC50 in test [7] was found to be 1.9 µM.

`C=CCOc1ccc(C[C@H](NC(=O)[C@H]2CC[C@H](CN)CC2)C(=O)Nc2ccc(C(C)=O)cc2)cc1` [compound 57]: the IC50 in test [1] (setting [8]) is 730 µM; in test [2], greater than 500 µM; in test [3] (setting [9]), 3.3 µM; in test [4] (setting [10]), 1.4 µM; in test [5] (setting [11]), 45 µM; in test [6] (setting [12]), 0.73 µM. The IC50 in test [7] was found to be 4.6 µM.

On to `Cc1ccc(NC(=O)[C@H](Cc2ccc(OCc3ccccc3)cc2)NC(=O)[C@H]2CC[C@H](CN)CC2)cc1C` [compound 58], for which the IC50 is greater than 125 µM in test [1] (setting [8]); greater than 50 µM in test [2]; 0.72 µM in test [3] (setting [9]); 2.8 µM in test [4] (setting [10]); greater than 150 µM in test [5] (setting [11]); 1.3 µM in test [6] (setting [12]). Besides, in test [7], the IC50 is 3.4 µM.

With `NCc1ccc(C(=O)N[C@@H](Cc2ccc(OCc3ccccc3)cc2)C(=O)NC2CC3CCC2C3)cc1` (stereo partly drawn) [compound 62], the IC50 in test [1] (setting [8]) is greater than 200 µM; in test [2], greater than 100 µM; in test [3] (setting [9]) it was 0.58 µM; in test [4] (setting [10]), 8.3 µM; in test [5] (setting [11]), greater than 500 µM; in test [6] (setting [12]) it was 2.4 µM. In addition, in test [7], the IC50 turned out to be 1.8 µM.

Regarding `NC[C@H]1CC[C@H](C(=O)N[C@@H](Cc2ccc(OCc3ccccc3)cc2)C(=O)NC2CC3CCC2C3)CC1` (stereo partly drawn) [compound 64], the IC50 in test [1] was greater than 400 µM; in test [2] it was greater than 250 µM; in test [3] (setting [9]), 0.49 µM; in test [4] (setting [10]) it was 2.3 µM; in test [5] (setting [11]) it was 65 µM; in test [6] (setting [12]), 1.1 µM. Also, the IC50 in test [7] is 2.5 µM.

Consider `NC[C@H]1CC[C@H](C(=O)N[C@@H](Cc2ccc(OCc3cccc(Cl)c3)cc2)C(=O)Nc2cccc(Cl)c2)CC1` [compound 66], for which the IC50 in test [1] (setting [8]) was greater than 50 µM; in test [2] it was greater than 50 µM; in test [3] (setting [9]), 0.092 µM; in test [4] (setting [10]), 0.54 µM; in test [5] (setting [11]) it was 350 µM; in test [6] (setting [12]), 3.9 µM. Further, the IC50 in test [7] was 0.8 µM.
